Structures are written as SMILES.

A short description of the data set: in vitro. The note with it: human, hela cells, % viability.
For `COc1cc(/C=C/c2nc(O)c([N+](=O)[O-])c(=O)[nH]2)ccc1OCC(=O)N1CCOCC1` [CBK267168], the viability at 28.5 h, 10 µM turned out to be 96.8%.

As for `Cc1nccn1CC1(O)CCN(Cc2c[nH]c3ccccc23)CC1` [CBK282671], the viability at 28.5 h, 10 µM came out at 82.1%.

In the case of `CCn1ncc2c1CCCC2NC1CCN(CC(F)(F)F)C1=O` (centres unmarked) [CBK305206], the viability at 28.5 h, 10 µM was 89.5%.

Consider `CC1(NC(=O)c2cccc(OCCN3CCCC3=O)c2)CCC1` [CBK281602], for which the viability at 28.5 h, 10 µM amounted to 92.8%.

Turning to `COc1ccc(C2NC(C(=O)O)CS2)cc1CN1CCOCC1` (centres unmarked) [CBK287132], the viability at 28.5 h, 10 µM came out at 87.4%.

Turning to `Nc1ncc(-c2ccco2)nc1N1CCC(C(=O)O)CC1` [CBK063440], the viability at 28.5 h, 10 µM came to 87%.

As to `Cc1nn(C(C)CC(=O)N2CCCC(CN(C)C)C2)c(C)c1Cl` (centres unmarked) [CBK282137], the viability at 28.5 h, 10 µM stood at 107%.

Take `CC(C)(C)OC(=O)N1CCN(c2ccccc2O)CC1` [CBK003878]: the viability at 28.5 h, 10 µM is 94.5%.

As for `CCN(CC)CCn1cc(C2CCCN(C)CC2)c2ccccc21` (centres unmarked) [CBK023788B], the viability at 28.5 h, 10 µM turned out to be 91.1%.

Consider `Cc1cc(C)cc(NC(=O)C2C3C4CCC(C4)C23)c1` (centres unmarked) [CBK058768], for which the viability at 28.5 h, 10 µM was 108%.

In the case of `O=[N+]([O-])c1ccc(N2CCN(S(=O)(=O)N3CCCC3)CC2)c(Cl)c1` [CBK264772], the viability at 28.5 h, 10 µM turned out to be 102%.

`COc1cc(/C=N/c2ccc(/N=C/c3cc(Br)c(O)c(OC)c3)cc2)cc(Br)c1O` [CBK261843]: the viability at 28.5 h, 10 µM was 82.7%.

In the case of `Clc1cccc(-c2nc(NCCCN3CCOCC3)c3ccccc3n2)c1` [CBK267309], the viability at 28.5 h, 10 µM came to 76%.

With `Cc1ccccc1OCC(=O)Oc1ccc(-c2cnc3ccccc3n2)cc1` [CBK264703], the viability at 28.5 h, 10 µM stood at 100%.

Regarding `COc1ccc(Sc2ncccc2C(F)(F)F)cc1OC` [CBK093760], the viability at 28.5 h, 10 µM came to 100%.

As to `Clc1ccc(COc2nccnc2N2CCN(Cc3ccc4c(c3)OCO4)CC2)cc1Cl` [CBK083078T], the viability at 28.5 h, 10 µM is 109%.

Turning to `FC(F)(F)c1ccc(CN2CCN(c3nccnc3OCc3cccnc3)CC2)cc1` [CBK083133T], the viability at 28.5 h, 10 µM amounted to 101%.

As for `COc1cc(S(=O)(=O)NCCc2ccccc2)c(OC)cc1C` [CBK269868], the viability at 28.5 h, 10 µM is 94.1%.

For `CCn1ncc(S(=O)(=O)Nc2ccc3c(ccn3C)c2)c1C` [CBK282730], the viability at 28.5 h, 10 µM was determined as 102%.

On to `CN1CCc2c(sc3nc(SCc4cccc5ccccc45)n(-c4ccccc4)c(=O)c23)C1` [CBK264556], for which the viability at 28.5 h, 10 µM came out at 124%.

For `CC(C)(C)OC(=O)N1CCC2(CC1)N=C(c1ccccc1)C(=S)N2` [CBK288478], the viability at 28.5 h, 10 µM was determined as 112%.

On to `O=C(C1CN(C(=O)Cn2ncc(=O)c3ccccc32)c2ccccc2O1)N1CCCCC1` (centres unmarked) [CBK297115], for which the viability at 28.5 h, 10 µM amounted to 93.5%.

As to `CCCCc1noc(CN2CCCC2C(=O)NCc2ccco2)n1` (centres unmarked) [CBK304036], the viability at 28.5 h, 10 µM was 88%.

In the case of `O=S(=O)(NCc1cccnc1)c1ccc(Cl)c2ccccc12` [CBK264008], the viability at 28.5 h, 10 µM turned out to be 89.5%.

For the compound `O=C1CC(NCc2ccccc2)C(=O)N1c1ccc(N2C(=O)CC(NCc3ccccc3)C2=O)cc1` (centres unmarked) [CBK263963], the viability at 28.5 h, 10 µM came to 88.6%.

As for `CCOc1ccc2c(c1)CN(CC(=O)Nc1cc(C)no1)CC2` [CBK305993], the viability at 28.5 h, 10 µM worked out at 92.9%.

As to `COc1ccc(-n2cc(-c3ccccn3)nn2)cc1OC` [CBK113133], the viability at 28.5 h, 10 µM is 103%.

On to `O=C(Cn1nc(C(=O)O)c2ccccc2c1=O)c1ccc(C2CCCCC2)cc1` [CBK297538], for which the viability at 28.5 h, 10 µM was found to be 89.5%.

Consider `Cc1cc(/C=C(/C#N)c2nc3ccccc3[nH]2)c(C)n1-c1ccc(N2CCOCC2)cc1` [CBK263792], for which the viability at 28.5 h, 10 µM came to 94%.

As to `COc1cccc2c3c([nH]c12)CCCC3` [CBK000331], the viability at 28.5 h, 10 µM was determined as 95.8%.

As to `Cc1c(F)cccc1CNC1CCC(NC(=O)OC(C)(C)C)CC1` (centres unmarked) [CBK056691], the viability at 28.5 h, 10 µM was 85%.

With `CC(=O)Nc1ccc(-c2cccc(COC3CCN(C(=O)Cc4cc(F)cc(F)c4F)CC3)c2)cc1` [CBK149489], the viability at 28.5 h, 10 µM was found to be 89.2%.

Regarding `Cc1nnc(Sc2ncccc2C(F)(F)F)s1` [CBK115211], the viability at 28.5 h, 10 µM was 87.7%.

Turning to `COc1ccc(C(=O)CN2CCN(CCN3C(=O)c4cccc5cccc(c45)C3=O)CC2)cc1` [CBK074628], the viability at 28.5 h, 10 µM amounted to 75.7%.

`Cc1ccc(S(=O)(=O)Nc2nc(C)c(NC(=O)Nc3ccc(Cl)cc3Cl)s2)cc1` [CBK264982]: the viability at 28.5 h, 10 µM turned out to be 85.8%.

On to `O=c1[nH]c2ccccc2n1CCOc1ccccc1` [CBK288008], for which the viability at 28.5 h, 10 µM was 98.5%.

Regarding `O=C(CN(C(=O)CNC(=O)c1cccs1)c1cccc(C(F)(F)F)c1)NC1CCCCC1` [CBK084697], the viability at 28.5 h, 10 µM came out at 94.5%.

Turning to `N#C/C(=C/c1c[nH]c2ccccc12)c1n[nH]c(N)c1C#N` [CBK262893], the viability at 28.5 h, 10 µM came to 70.4%.

For the compound `CN(C)C(=O)COc1cccc(Nc2nc(Br)cn3ccnc23)c1` [CBK037989], the viability at 28.5 h, 10 µM came to 92.8%.

Take `O=C(c1c(NS(=O)(=O)c2ccc3ccccc3c2)sc2c1CCCC2)N1CCOCC1` [CBK028636]: the viability at 28.5 h, 10 µM is 94.4%.

For the compound `Cc1cc2cc(CNCCCN3CCCC3=O)c(=O)[nH]c2cc1C` [CBK282296], the viability at 28.5 h, 10 µM is 81.4%.

For `COCn1nccc1S(=O)(=O)NCCc1cn2ccccc2n1` [CBK304060], the viability at 28.5 h, 10 µM turned out to be 80.6%.

`O=C(NC1CC1)c1nn(-c2ncccn2)c2ccccc12` [CBK048508]: the viability at 28.5 h, 10 µM stood at 88%.

Consider `COC(=O)[C@H]1CN(C(=O)c2ccco2)C[C@@H]1c1ccc(F)cc1` [CBK283733], for which the viability at 28.5 h, 10 µM was 85.8%.

Take `COc1ccc2c(CC(=O)Nc3cccc(-c4csc(C)n4)c3)coc2c1` [CBK295149]: the viability at 28.5 h, 10 µM was 94%.

As to `O=C(Nc1ccncc1)c1ccc(S(=O)(=O)N2CCCC2)cc1` [CBK287786], the viability at 28.5 h, 10 µM was 106%.

Take `Cc1ccc(-n2cnnn2)c(S(=O)(=O)N2CCOCC2)c1` [CBK268297]: the viability at 28.5 h, 10 µM was found to be 102%.

For `COc1cncc(-c2cnc(N)c(NC3CCOCC3)n2)c1` [CBK063846], the viability at 28.5 h, 10 µM is 85.7%.

Turning to `COc1ccccc1OCc1cc(C)c(C(=O)N2CCN(C)CC2c2ccccc2)o1` (centres unmarked) [CBK286273], the viability at 28.5 h, 10 µM stood at 89.3%.

On to `O=C(O)CCC1C(=O)CCC1(C(=O)O)c1ccccc1` (centres unmarked) [CBK287208], for which the viability at 28.5 h, 10 µM came to 108%.

Consider `Nc1nc(SCCCN2C(=O)c3cccc4cccc(c34)C2=O)nc2sc3c(c12)CCCC3` [CBK264433], for which the viability at 28.5 h, 10 µM came to 99.1%.

Regarding `O=C(N/N=C\c1c(F)cccc1Cl)c1ccncc1` [CBK023263], the viability at 28.5 h, 10 µM was found to be 84.7%.

As to `Fc1ccc(-c2cn(-c3cncnc3)nn2)c(F)c1` [CBK112989], the viability at 28.5 h, 10 µM was 96.4%.

As to `CN(C)CCN(C)c1nc(-c2cc(C(F)(F)F)cc(C(F)(F)F)c2)cn2ccnc12` [CBK037971], the viability at 28.5 h, 10 µM is 104%.

Consider `O=C(O)c1cc(NC(=O)c2ccccc2[N+](=O)[O-])cc(C(=O)O)c1` [CBK262135], for which the viability at 28.5 h, 10 µM came to 81.1%.

Regarding `Cc1cn(C2CC(O)C(CO)O2)c(=O)nc1SCCC#N` (centres unmarked) [CBK201201], the viability at 28.5 h, 10 µM amounted to 97.5%.

Turning to `Cc1ccc(NS(=O)(=O)c2ccc(NC(=O)c3ccc(CN4CCOCC4)cc3)cc2)c(C)c1` [CBK264815], the viability at 28.5 h, 10 µM is 94.5%.

For the compound `Cc1n[nH]c(O)c1C(c1cccc([N+](=O)[O-])c1)c1c(C)n[nH]c1O` [CBK264753], the viability at 28.5 h, 10 µM turned out to be 97.8%.

On to `Cc1ccn(CCC(=O)N2CCC3(C/C=C/C[C@H]4COCC[C@@H]4NC(=O)CNC3=O)CC2)n1` [CBK292070], for which the viability at 28.5 h, 10 µM turned out to be 86%.

For `NC(=O)CN1CC2(CCN(C(=O)OCc3ccccc3)CC2)c2ccccc21` [CBK116309], the viability at 28.5 h, 10 µM turned out to be 94.4%.

On to `Cc1cccn2c(=O)cc(CN3CCCC(N4CCNC4=O)C3)nc12` (centres unmarked) [CBK304947], for which the viability at 28.5 h, 10 µM was found to be 88.4%.

As for `CN1CCN(C(=O)CNS(=O)(=O)c2cc(Br)c(Cl)s2)CC1` [CBK034482], the viability at 28.5 h, 10 µM amounted to 94%.

As to `C1=CCC(CN(CCCn2ccnc2)Cc2cccnc2)CC1` (centres unmarked) [CBK283216], the viability at 28.5 h, 10 µM was 88.6%.

As to `CC(C)c1nc(CN2CCN(c3ccc4nncn4n3)CC2)cs1` [CBK306219], the viability at 28.5 h, 10 µM was 102%.

For the compound `COc1ccc(CCCC(=O)N2CCC(c3c(C(N)=O)sc4ccccc34)C2)cc1C` (centres unmarked) [CBK285848], the viability at 28.5 h, 10 µM is 94%.

Regarding `CCCc1n[nH]c(C2CC2)c1C(=O)OCC` [CBK115714], the viability at 28.5 h, 10 µM came out at 115%.

With `CN(C)CCCn1cnc2c1c(=O)[nH]c(=O)n2C` [CBK287913], the viability at 28.5 h, 10 µM worked out at 92.2%.

In the case of `COC(=O)CNC(c1ccccc1)c1cc(Br)ccc1N` (centres unmarked) [CBK019222], the viability at 28.5 h, 10 µM turned out to be 96.8%.

On to `CC(C)C(=O)Nc1cc2cccnc2nc1-c1ccc(N(C)C)cc1` [CBK073650], for which the viability at 28.5 h, 10 µM was determined as 90.6%.

Consider `COc1ccc(-c2nccnc2OC)c(OC)c1` [CBK107039], for which the viability at 28.5 h, 10 µM is 114%.

In the case of `O=C(CSc1nnc(-c2cccnc2)n1-c1ccccc1)Nc1cc(C(F)(F)F)ccc1Cl` [CBK267540], the viability at 28.5 h, 10 µM turned out to be 90.8%.

Consider `Cc1nc(-c2ccc(Cl)cc2)sc1C(=O)N1CCCC(C(=O)O)C1` (centres unmarked) [CBK304407], for which the viability at 28.5 h, 10 µM is 91.9%.

On to `CCCCN(C)c1c(C)nc2c(OCC(=O)c3ccc(F)cc3)cccn12` [CBK147172], for which the viability at 28.5 h, 10 µM was 93.1%.

For `CSCCC(=O)NC1CCCc2nc(N3CCC(CO)CC3)ncc21` (centres unmarked) [CBK306782], the viability at 28.5 h, 10 µM was 91.3%.

For the compound `O=C(NC1CCCCCC1)c1ccc(COCC(F)(F)C(F)F)cc1` [CBK059012], the viability at 28.5 h, 10 µM is 114%.

In the case of `Cc1ncc(S(=O)(=O)N2CCC(OCc3ccncc3)C2)s1` (centres unmarked) [CBK305483], the viability at 28.5 h, 10 µM came out at 99.5%.

Regarding `COc1ccc(CCNC(=O)N2CCCC(CO)C2)cc1` (centres unmarked) [CBK156059], the viability at 28.5 h, 10 µM is 87.1%.

With `O=[N+]([O-])c1ccc(NCCNS(=O)(=O)c2ccccc2)cc1` [CBK261948], the viability at 28.5 h, 10 µM amounted to 96.1%.

As for `CCn1cc(CN(Cc2cccnc2)Cc2ccccc2OC)cn1` [CBK307224], the viability at 28.5 h, 10 µM worked out at 84.2%.

Take `Cc1c(C)n(Cc2cccnc2)c2ncn(C3CCCCCC3)c(=N)c12` [CBK287932]: the viability at 28.5 h, 10 µM was 85.9%.

The values are drawn from publication PMC12040169 (PLOS Biology, 2025).
